Experiment [1] concerns the target T1, Aminopeptidase N (Plasmodium falciparum FcB1/Columbia, UniProt O96935).
T1 sequence (O96935 whole entry): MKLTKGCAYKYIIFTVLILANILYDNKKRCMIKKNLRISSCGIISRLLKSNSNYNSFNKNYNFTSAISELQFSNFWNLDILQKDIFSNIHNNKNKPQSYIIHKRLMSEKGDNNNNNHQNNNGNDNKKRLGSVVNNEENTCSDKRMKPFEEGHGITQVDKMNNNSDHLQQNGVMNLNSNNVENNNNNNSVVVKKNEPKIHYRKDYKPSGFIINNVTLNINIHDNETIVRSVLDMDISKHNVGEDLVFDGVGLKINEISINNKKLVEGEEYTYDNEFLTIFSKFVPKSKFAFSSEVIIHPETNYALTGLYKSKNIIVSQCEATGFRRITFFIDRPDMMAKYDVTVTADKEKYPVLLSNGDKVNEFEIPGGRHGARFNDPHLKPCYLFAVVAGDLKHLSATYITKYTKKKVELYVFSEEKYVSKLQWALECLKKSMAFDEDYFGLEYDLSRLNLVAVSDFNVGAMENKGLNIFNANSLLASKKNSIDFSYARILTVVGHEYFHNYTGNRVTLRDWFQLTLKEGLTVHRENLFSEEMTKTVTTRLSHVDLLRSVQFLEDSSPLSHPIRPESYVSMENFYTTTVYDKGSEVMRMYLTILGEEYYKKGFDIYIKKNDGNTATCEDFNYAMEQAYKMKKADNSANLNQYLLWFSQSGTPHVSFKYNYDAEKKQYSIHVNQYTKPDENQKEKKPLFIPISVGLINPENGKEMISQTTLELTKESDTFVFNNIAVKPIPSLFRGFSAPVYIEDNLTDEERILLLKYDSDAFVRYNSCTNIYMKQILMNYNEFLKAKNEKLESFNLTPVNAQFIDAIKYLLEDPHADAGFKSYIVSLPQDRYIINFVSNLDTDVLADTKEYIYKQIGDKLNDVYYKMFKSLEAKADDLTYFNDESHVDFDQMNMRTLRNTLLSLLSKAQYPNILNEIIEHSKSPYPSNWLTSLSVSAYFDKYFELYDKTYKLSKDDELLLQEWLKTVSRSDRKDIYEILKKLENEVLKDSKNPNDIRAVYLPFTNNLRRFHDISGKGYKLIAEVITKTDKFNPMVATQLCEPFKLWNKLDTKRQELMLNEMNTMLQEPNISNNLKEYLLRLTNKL
Briefly: malaria alanyl aminopeptidase activity blockers – biochemical, fluorogenic H-Leu-NHMec substrate, 1536-well (AID 1445). Details: species or system Plasmodium falciparum 3D7, 3D7.

Experiment [2] addresses Paired box protein Pax-8 (Homo sapiens, UniProt Q06710). As to the kind of experiment: PAX8 transcriptional activity inhibition in RMG-I – RMG-I cells, luciferase, cherry-pick, dose response (AID 687027).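 Further: luciferase reporter driven by Pax8 target thyroperoxidase promoter measured by SteadyGlo luminescence.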 The class given is functional, cell-based.
Experiment [3] in a line: viability of PTEN-deleted HCT116 cells – cell-based, HCT116 PTEN knockout, dose response (AID 1047).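 Further: HCT116 colon tumor cells with PTEN knocked out; cells exposed to compound for 60 hours before readout; potency for loss of cell viability measured by luminescence.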 It counts as functional.
The subject of experiment [4] is INS1. As to the kind of experiment: INS-1E survival protection against cytokine death – cell-based, luminescence, retest, dose response (AID 449756).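 Further: cell death triggered by IL-1 beta plus TNF-alpha plus IFN-gamma mixture; protective hits raise ATP signal compared with cytokine alone wells.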 The class given is functional. The settings on record: Rattus norvegicus.
Experiment [5] can be described thus: luciferase reporter signal suppression in cells – H4 neuroglioma cells, luminescence, dose response (AID 1990). It counts as functional, cell-based.
The target in experiment [6] is T2, Streptokinase A (Streptococcus pyogenes serotype M1, UniProt P10520).
T2 sequence (P10520 whole entry): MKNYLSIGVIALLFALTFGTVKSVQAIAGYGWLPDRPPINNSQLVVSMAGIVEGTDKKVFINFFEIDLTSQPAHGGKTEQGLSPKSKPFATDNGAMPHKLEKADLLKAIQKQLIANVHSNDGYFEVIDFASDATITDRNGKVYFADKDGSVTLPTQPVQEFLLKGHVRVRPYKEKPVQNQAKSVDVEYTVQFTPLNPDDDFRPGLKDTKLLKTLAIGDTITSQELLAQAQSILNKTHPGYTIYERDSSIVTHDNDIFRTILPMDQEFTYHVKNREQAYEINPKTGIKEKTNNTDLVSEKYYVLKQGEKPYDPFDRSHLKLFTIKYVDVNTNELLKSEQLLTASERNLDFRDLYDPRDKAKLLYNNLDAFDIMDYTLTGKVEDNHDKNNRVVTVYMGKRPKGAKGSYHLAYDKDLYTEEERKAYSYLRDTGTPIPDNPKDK
As to the kind of experiment: viability-normalized secreted streptokinase activity reduction – plasminogen activation absorbance, OD405, dose response (AID 1914).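 Further: secreted streptokinase activity via plasminogen activation per viability signal from cell pellet.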 It counts as functional, Streptococcus pyogenes M1 GAS.

The target in experiment [7] is Induced myeloid leukemia cell differentiation protein Mcl-1 (Homo sapiens, UniProt Q07820). It counts as functional.
Induced myeloid leukemia cell differentiation protein Mcl-1, sequence (Q07820 whole entry): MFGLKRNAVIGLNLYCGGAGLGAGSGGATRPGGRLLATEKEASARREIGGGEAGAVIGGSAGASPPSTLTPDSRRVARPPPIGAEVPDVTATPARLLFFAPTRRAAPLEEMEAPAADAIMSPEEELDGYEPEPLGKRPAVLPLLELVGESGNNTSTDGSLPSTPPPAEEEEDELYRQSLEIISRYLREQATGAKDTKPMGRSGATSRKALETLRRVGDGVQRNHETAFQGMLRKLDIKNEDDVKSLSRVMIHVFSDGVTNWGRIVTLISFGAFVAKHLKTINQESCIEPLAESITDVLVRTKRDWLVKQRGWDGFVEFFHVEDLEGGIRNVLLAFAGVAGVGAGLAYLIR
The nature of experiment [8]: Luminescence Cell-Based Dose Response HTS to Identify Inhibitors of 5'UTR Stem-Loop Driven Prion Protein mRNA Translation in H4 Neuroglioblastoma Cells. [Related pubchem assays: 1827 (Project Summary), 1813 (Primary HTS)]. It counts as functional.
For experiment [9], the system named is Streptococcus. As to the kind of experiment: GAS UMAA2166 growth inhibition – luminescence, BacTiterGlo, counter-screen for streptokinase expression inhibitor project, dose response (AID 1915).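 Further: potency for reduction of bacterial viability or growth.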 The class given is functional, organism-based. A general note: Counterscreens check selectivity or assay interference.
A short description of experiment [10]: alpha-synuclein stem-loop luciferase translation blockers – H4 neuroglioma cells, luminescence, confirmation (AID 1988). The class given is functional, cell-based.
A short description of experiment [11]: loss of viability in HepG2 cells – cell-based, CellTiter-Glo, cherry-picked, cytotoxicity control for Shn3 inhibitor project, dose response (AID 624134). The class given is functional. Background: Cellular ATP, detected with luciferase, serves as a proxy for viable cell number.
The nature of experiment [12]: non-specific 3'UTR reporter inhibition in Clone20-Shn3RL – cell-based, Renilla luciferase, cherry-picked, counter-screen for Shn3 inhibitor project, dose response (AID 624133). The class given is functional.
A short description of experiment [13]: reduction of Shn3 3'UTR-driven luciferase in osteoblasts – cell-based, Clone20 osteoblasts, firefly luciferase, cherry-picked, dose response (AID 624132).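 Further: firefly luciferase luminescence from reporter carrying the Shn3 3'UTR in osteoblasts.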 The class given is functional.
Experiment [14] is described as follows: viability of HCT116 lacking mutant beta-catenin – cell-based, human colon tumor, dose response (AID 1045).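 Further: HCT116 colon tumor cells with beta catenin knocked out; cells exposed to compound for 60 hours.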 The class given is functional.
The subject of experiment [15] is Streptococcus sp. 'group A'. As to the kind of experiment: Streptococcus pyogenes SK(-)GAS viability under kanamycin – luminescence, BacTiterGlo, confirmation, counter-screen for streptokinase expression inhibitor project, dose response (AID 1900). It counts as functional, organism-based.
Experiment [16] can be described thus: microbe, parasite or virus in culture. The following applies: Mycobacterium tuberculosis. It counts as functional.
Experiment [17] deals with T3, Protein RecA (Mycobacterium tuberculosis, UniProt P9WHJ3).
T3 sequence (P9WHJ3 whole entry): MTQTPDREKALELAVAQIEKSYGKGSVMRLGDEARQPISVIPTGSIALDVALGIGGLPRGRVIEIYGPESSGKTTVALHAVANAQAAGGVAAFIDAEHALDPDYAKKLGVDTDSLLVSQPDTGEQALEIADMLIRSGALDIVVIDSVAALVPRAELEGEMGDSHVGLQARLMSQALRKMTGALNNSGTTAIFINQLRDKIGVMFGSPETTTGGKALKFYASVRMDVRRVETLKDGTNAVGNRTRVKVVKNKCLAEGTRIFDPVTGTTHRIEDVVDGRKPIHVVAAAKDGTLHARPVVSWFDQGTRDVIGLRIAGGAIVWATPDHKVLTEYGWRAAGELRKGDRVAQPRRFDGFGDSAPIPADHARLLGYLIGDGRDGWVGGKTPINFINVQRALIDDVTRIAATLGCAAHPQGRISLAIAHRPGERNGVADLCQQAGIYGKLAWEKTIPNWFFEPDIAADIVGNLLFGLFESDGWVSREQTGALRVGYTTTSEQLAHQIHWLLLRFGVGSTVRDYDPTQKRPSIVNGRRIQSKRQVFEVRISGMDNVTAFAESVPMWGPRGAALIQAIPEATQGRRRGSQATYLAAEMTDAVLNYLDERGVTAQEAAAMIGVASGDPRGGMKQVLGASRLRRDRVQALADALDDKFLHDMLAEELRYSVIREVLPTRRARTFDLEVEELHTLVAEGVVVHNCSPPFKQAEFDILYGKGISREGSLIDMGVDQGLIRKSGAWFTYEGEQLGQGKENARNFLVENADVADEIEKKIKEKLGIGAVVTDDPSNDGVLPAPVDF
As to the kind of experiment: Fluorescence Cell-Free Homogeneous Dose Retest to Identify Inhibitors of RecA-Intein Splicing Activity. [Related pubchem assays (depositor defined):AID2097, AID2223, AID489010, AID492950]. It counts as functional.

Experiment [18] addresses T4, Leucine aminopeptidase (Plasmodium falciparum 3D7, UniProt Q8IL11).
T4 sequence (Q8IL11 whole entry): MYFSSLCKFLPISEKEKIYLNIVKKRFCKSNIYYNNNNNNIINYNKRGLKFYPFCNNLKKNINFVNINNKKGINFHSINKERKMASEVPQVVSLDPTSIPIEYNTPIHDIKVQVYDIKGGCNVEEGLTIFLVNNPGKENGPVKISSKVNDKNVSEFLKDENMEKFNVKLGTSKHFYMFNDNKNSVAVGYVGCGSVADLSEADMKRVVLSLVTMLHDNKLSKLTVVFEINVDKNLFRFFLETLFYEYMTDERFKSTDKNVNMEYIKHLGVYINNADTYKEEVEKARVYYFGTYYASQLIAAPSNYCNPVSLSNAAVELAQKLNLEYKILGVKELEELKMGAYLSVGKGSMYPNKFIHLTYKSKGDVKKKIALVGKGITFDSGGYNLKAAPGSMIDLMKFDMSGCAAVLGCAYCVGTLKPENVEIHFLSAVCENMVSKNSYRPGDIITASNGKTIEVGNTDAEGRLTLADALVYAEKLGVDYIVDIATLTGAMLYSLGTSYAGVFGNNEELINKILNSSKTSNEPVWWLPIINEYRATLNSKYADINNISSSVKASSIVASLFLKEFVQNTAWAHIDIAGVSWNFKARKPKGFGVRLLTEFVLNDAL
Briefly: P. falciparum M17LAP inhibitors, primary screen, biochemical, fluorogenic H-Leu-NHMec substrate, 1536-well (AID 1619). It counts as functional.

Experiment [19] addresses T5, Replicative DNA helicase DnaB (Mycobacterium tuberculosis, UniProt P9WMR3).
T5 sequence (P9WMR3 whole entry): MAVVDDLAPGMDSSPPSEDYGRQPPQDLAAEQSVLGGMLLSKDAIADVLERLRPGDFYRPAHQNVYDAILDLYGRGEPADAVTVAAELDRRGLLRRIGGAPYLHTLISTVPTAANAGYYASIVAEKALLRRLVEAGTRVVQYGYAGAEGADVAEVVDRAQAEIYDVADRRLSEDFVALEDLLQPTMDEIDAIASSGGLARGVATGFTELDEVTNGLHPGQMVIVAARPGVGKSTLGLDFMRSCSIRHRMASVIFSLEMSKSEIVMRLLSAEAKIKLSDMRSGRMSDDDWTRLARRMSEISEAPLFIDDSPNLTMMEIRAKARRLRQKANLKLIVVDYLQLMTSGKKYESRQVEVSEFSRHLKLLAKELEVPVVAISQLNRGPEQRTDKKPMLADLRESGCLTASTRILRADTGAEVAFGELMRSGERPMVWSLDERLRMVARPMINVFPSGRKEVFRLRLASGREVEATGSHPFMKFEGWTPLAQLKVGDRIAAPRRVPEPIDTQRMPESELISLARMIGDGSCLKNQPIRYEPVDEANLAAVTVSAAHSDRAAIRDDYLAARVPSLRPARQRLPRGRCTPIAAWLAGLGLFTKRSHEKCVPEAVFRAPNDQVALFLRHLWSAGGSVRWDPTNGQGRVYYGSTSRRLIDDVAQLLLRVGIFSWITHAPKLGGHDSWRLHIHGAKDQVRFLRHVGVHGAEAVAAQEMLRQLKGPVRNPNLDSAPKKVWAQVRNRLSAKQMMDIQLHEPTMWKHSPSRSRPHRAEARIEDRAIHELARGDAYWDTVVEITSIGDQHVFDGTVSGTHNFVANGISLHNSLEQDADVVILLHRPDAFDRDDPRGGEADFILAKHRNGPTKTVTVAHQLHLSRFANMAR
As to the kind of experiment: DnaB intein splicing inhibitors, dose response, biochemical, cell-free fluorescence (AID 449749). It counts as functional.

The structures appear in SMILES notation. Calls of active or inactive are those of the source.

For orientation: IC50 means the concentration at which inhibition is half-maximal. The AC50 is the midpoint of the concentration-response curve, whichever way the signal moves. The EC50 is the concentration giving half of the maximal effect.

Paired box protein Pax-8, sequence (Q06710 whole entry): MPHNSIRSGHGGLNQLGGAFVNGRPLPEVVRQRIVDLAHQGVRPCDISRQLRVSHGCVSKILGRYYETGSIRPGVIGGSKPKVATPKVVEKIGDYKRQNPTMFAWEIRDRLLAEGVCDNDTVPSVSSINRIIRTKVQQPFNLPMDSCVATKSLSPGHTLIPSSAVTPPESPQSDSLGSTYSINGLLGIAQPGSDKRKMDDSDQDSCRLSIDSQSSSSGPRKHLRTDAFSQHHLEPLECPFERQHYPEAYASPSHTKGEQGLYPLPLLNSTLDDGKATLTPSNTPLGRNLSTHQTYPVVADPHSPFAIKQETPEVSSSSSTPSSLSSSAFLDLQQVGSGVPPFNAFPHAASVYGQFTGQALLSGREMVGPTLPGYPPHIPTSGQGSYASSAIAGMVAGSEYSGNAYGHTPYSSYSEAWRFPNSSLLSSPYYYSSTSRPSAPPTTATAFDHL

As to `COC(=O)c1ccc(Cl)c(NS(=O)(=O)c2ccc3c(c2)OCCO3)c1`, the IC50 in [1] is 29.7 µM (active).
Regarding `O=C(Nc1ccc([N+](=O)[O-])cc1)Nc1nc(-c2ccc(Cl)s2)cs1`, the AC50 in [2] is 2.42 µM (active); in [4], 1.54 µM (active); in experiment [11], 4.82 µM (active); in experiment [12], 3.04 µM (active); in experiment [13] it was 3.19 µM (active). Besides, the concentration for a half-maximal effect (EC50) in [3] is 800 nM (active); in [5], 8.65 µM (active); in experiment [6], 44.8 µM (inconclusive); in experiment [8] it was 8.31 µM (active); in experiment [9], 81.8 µM (active); in [10] it was 8.39 µM (active). Also, the 50% effective concentration (EC50) in experiment [14] was 991 nM (active); in experiment [15] it was 6.16 µM (active). Besides, the half-inhibitory concentration (IC50) in experiment [7] is 5.32 µM (active).
Regarding `Nc1c(C(=O)O)cnc2c(-c3ccc(Cl)cc3)cnn12`, in [16], the CC50 is 24.6 µM (active). In addition, the half-inhibitory concentration (IC50) in experiment [1] was 42.4 µM (active).
For the compound `CCCCc1ccc(NC(=O)CSCc2cc(=O)[nH][nH]2)cc1`, the EC50 in experiment [17] is 1.82 µM (active). Further, in experiment [18], the IC50 was 12.4 µM (active). Also, the AC50 in experiment [19] was 3.57 µM (active).
Turning to `COc1ccc(CCNC(=O)COC(=O)Cc2cccc3ccccc23)cc1`, in [7], the IC50 is 26.3 µM (not active).

For the origin of these results see ChEMBL document CHEMBL1201862, “PubChem BioAssay data set” (2004).
